Experimental data: PubChem BioAssay AID256 (DTP/NCI, 2004)
Toxic doses and inconclusive results are not listed.

Test system: CD2F1 mice, L1210 leukemia ip, survival T/C
Test: NCI In Vivo Anticancer Drug Screen. Data for tumor model L1210 Leukemia (intraperitoneal) in CD2F1 (CDF1) mice
Conditions: endpoint: mean survival time, higher = longer survival
Procedure, shortened: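 Activity against a transplanted murine tumor was judged by comparing the compound group with a vehicle group. The outcome in the treated animals was divided by that in the controls.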

[1] = dose: 100.0 mg/kg/injection, schedule: Q04DX003 (ip), vehicle: saline with Tween-80
[2] = dose: 200.0 mg/kg/injection, schedule: Q04DX003 (ip), vehicle: saline with Tween-80
[3] = dose: 400.0 mg/kg/injection, schedule: Q04DX003 (ip), vehicle: saline with Tween-80
[4] = dose: 12.5 mg/kg/injection, schedule: Q01DX009 (ip), vehicle: saline
[5] = dose: 25.0 mg/kg/injection, schedule: Q01DX009 (ip), vehicle: saline
[6] = dose: 50.0 mg/kg/injection, schedule: Q01DX009 (ip), vehicle: saline with Tween-80
[7] = dose: 100.0 mg/kg/injection, schedule: Q01DX009 (ip), vehicle: saline with Tween-80

Structure (SMILES): [C-]#[O+].[C-]#[O+].[C-]#[O+].[C-]#[O+].[C-]#[O+].[C-]#[O+].[W]
- T/C [1]: 95 % of control
- T/C [2]: 97 % of control
- T/C [3]: 101 % of control

Structure (SMILES): CCOC(=O)C(OCc1ccccc1)(C(=O)N1CCCCCC1=O)C(C)C (stereo not given)
- T/C [1]: 100 % of control
- T/C [2]: 105 % of control
- T/C [3]: 96 % of control

Structure (SMILES): C[C@H]1CN1C1=CC(=O)C(N2C[C@@H]2C)=CC1=O
- T/C (dose: 3.13 mg/kg/injection, schedule: Q01DX009 (ip), vehicle: other): 183 % of control
- T/C (dose: 4.69 mg/kg/injection, schedule: Q01DX009 (ip), vehicle: other): 168 % of control
- T/C (dose: 6.25 mg/kg/injection, schedule: Q01DX009 (ip), vehicle: other): 123 % of control
- T/C (dose: 12.6 mg/kg/injection, schedule: Q01DX001 (ip), vehicle: other): 116 % of control
- T/C (dose: 18.7 mg/kg/injection, schedule: Q04DX003 (ip), vehicle: saline with Tween-80): 98 % of control

Structure (SMILES): CC1(C)CC2(OC2c2ccccc2)C(=O)c2ccccc21 (stereo not given)
- T/C (dose: 12.5 mg/kg/injection, schedule: Q01DX009 (ip), vehicle: Klucel (hydroxypropylcellulose) (HPC)): 96 % of control
- T/C (dose: 25.0 mg/kg/injection, schedule: Q01DX009 (ip), vehicle: Klucel (hydroxypropylcellulose) (HPC)): 92 % of control
- T/C (dose: 50.0 mg/kg/injection, schedule: Q01DX009 (ip), vehicle: Klucel (hydroxypropylcellulose) (HPC)): 87 % of control
- T/C (dose: 100.0 mg/kg/injection, schedule: Q01DX009 (ip), vehicle: Klucel (hydroxypropylcellulose) (HPC)): 96 % of control
- T/C (dose: 200.0 mg/kg/injection, schedule: Q01DX009 (ip), vehicle: Klucel (hydroxypropylcellulose) (HPC)): 94 % of control
- T/C (dose: 400.0 mg/kg/injection, schedule: Q01DX009 (ip), vehicle: Klucel (hydroxypropylcellulose) (HPC)): 94 % of control

Structure (SMILES): Cc1cc(Br)ccc1N
- T/C [1]: 97 % of control
- T/C [2]: 96 % of control
- T/C [3]: 97 % of control

Structure (SMILES): CC(=O)OC1C(CO)OC2C1Oc1nc(=N)c(F)cn12 (stereo not given)
- T/C (dose: 3.13 mg/kg/injection, schedule: Q01DX009 (ip), vehicle: saline): 101 % of control
- T/C (dose: 6.25 mg/kg/injection, schedule: Q01DX009 (ip), vehicle: saline): 106 % of control
- T/C [4]: 110 % of control
- T/C [5]: 116 % of control

Structure (SMILES): O=C(O)C(F)(F)F.O=C(O)C(F)(F)F.O=C(O)C(F)(F)F.O=C(O)C(F)(F)F.[Rh].[Rh]
- T/C [4]: 107 % of control
- T/C [5]: 115 % of control
- T/C (dose: 50.0 mg/kg/injection, schedule: Q01DX009 (ip), vehicle: saline): 118 % of control
- T/C (dose: 100.0 mg/kg/injection, schedule: Q01DX009 (ip), vehicle: saline): 107 % of control

Structure (SMILES): O=P(CCC(O)c1ccccc1)(c1ccccc1)c1ccccc1 (stereo not given)
- T/C [6]: 96 % of control
- T/C [7]: 92 % of control
- T/C [1]: 97 % of control
- T/C [2]: 87 % of control

Structure (SMILES): CN(C)c1ccc(/C=N/NC(=O)c2ccccc2)cc1
- T/C (dose: 3.12 mg/kg/injection, schedule: Q04DX003 (ip), vehicle: saline with Tween-80): 90 % of control
- T/C (dose: 6.25 mg/kg/injection, schedule: Q04DX003 (ip), vehicle: saline with Tween-80): 96 % of control
- T/C (dose: 12.5 mg/kg/injection, schedule: Q04DX003 (ip), vehicle: saline with Tween-80): 94 % of control

Structure (SMILES): O=[N+]([O-])c1ccc(N/N=C2/C3CCC(C3)C2C(O)(C(F)(F)F)C(F)(F)F)c([N+](=O)[O-])c1 (stereo not given)
- T/C (dose: 50.0 mg/kg/injection, schedule: Q04DX003 (ip), vehicle: saline with Tween-80): 94 % of control
- T/C [1]: 95 % of control
- T/C [2]: 94 % of control
- T/C [3]: 103 % of control

Structure (SMILES): CN(C)N=Nc1ccc(S(=O)(=O)Nc2ncccn2)cc1
- T/C (dose: 25.0 mg/kg/injection, schedule: Q01DX009 (ip), vehicle: saline with Tween-80): 120 % of control
- T/C [6]: 124 % of control
- T/C [1]: 113 % of control
- T/C [3]: 157 % of control

Structure (SMILES): COc1cc2c(cc1OC)C(CCN)=NCC2
- T/C (dose: 25.0 mg/kg/injection, schedule: Q01DX009 (ip), vehicle: saline sonified): 98 % of control
- T/C (dose: 50.0 mg/kg/injection, schedule: Q01DX009 (ip), vehicle: saline sonified): 98 % of control
- T/C (dose: 100.0 mg/kg/injection, schedule: Q01DX009 (ip), vehicle: saline sonified): 93 % of control
- T/C (dose: 100.0 mg/kg/injection, schedule: Q04DX003 (ip), vehicle: saline): 97 % of control

Structure (SMILES): CCCC(C)(C)c1ccccc1
- T/C [6]: 104 % of control
- T/C [7]: 96 % of control
- T/C (dose: 200.0 mg/kg/injection, schedule: Q01DX009 (ip), vehicle: saline with Tween-80): 89 % of control
